Patent publication US8927717B1, “Thiochromeno[2,3-c]quinolin-12-one derivatives, preparation method and application thereof” (National Defense Medical Center, priority 2014, dated 2015)

Tests used:
Assay type in all cases: cell-based
SK-MEL-5 = settings: SK-MEL-5; five dose
UACC-62 = system: UACC-62
OVCAR-5 = system: OVCAR-5
OVCAR-8 = system: OVCAR-8
NCI/ADR-RES = system: NCI/ADR-RES
SK-OV-3 = system: SK-OV-3
786-0 = system: 786-0
A498 = system: A498
RXF 393 = system: RXF 393
SN12C = system: SN12C
TK-10 = settings: Renal cancer; 10^−5 molar; 48 hours; SRB
UO-31 = system: UO-31
PC-3 = system: PC-3
DU-145 = system: DU-145
MCF7 = system: MCF7
MDA-MB-231/ATCC = system: MDA-MB-231/ATCC
BT-549 = system: BT-549
T-47D = settings: Breast cancer; 10^−5 molar; 48 hours; SRB
MDA-MB-486 = system: MDA-MB-486
60 cancer cell lines = experiment: NCI 60-cell screen, SRB, whole panel (mean, delta, range)
[1] = Ovarian cancer, 10^−5 molar, 48 hours, SRB
[2] = Renal cancer, 10^−5 molar, 48 hours, SRB
[3] = Prostate cancer, 10^−5 molar, 48 hours, SRB
[4] = Breast cancer, 10^−5 molar, 48 hours, SRB

Compound: CN(C)CCNc1nc2ccccc2c2c(=O)c3cc(Cl)ccc3sc12 [Compound N7, 10-Chloro-6-((2-(dimethylamino)ethyl)amino)-12H-thiochromeno[2,3-c]quinolin-12-one]
- TGI (SK-MEL-5): 3.59 µM
- GI50 (UACC-62; Homo sapiens, UACC-62, five dose): 1.7 µM
- CC50 (UACC-62; Homo sapiens, UACC-62, five dose, read-out: LC50 (the source's name)): 5.88 µM
- Growth percent UACC-62 (UACC-62; Melanoma, 10^−5 molar, 48 hours, SRB): −76.58%
- TGI (UACC-62; UACC-62, five dose): 3.16 µM
- GI50 (OVCAR-5; Homo sapiens, OVCAR-5, five dose): 1.45 µM
- CC50 (OVCAR-5; Homo sapiens, OVCAR-5, five dose, read-out: LC50 (the source's name)): 5.83 µM
- TGI (OVCAR-5; OVCAR-5, five dose): 2.91 µM
- Growth percent OVCAR-5 (OVCAR-5; [1]): 24.27%
- GI50 (OVCAR-8; Homo sapiens, OVCAR-8, five dose): 1.64 µM
- CC50 (OVCAR-8; Homo sapiens, OVCAR-8, five dose, read-out: LC50 (the source's name)): 6.06 µM
- TGI (OVCAR-8; OVCAR-8, five dose): 3.15 µM
- Growth percent OVCAR-8 (OVCAR-8; [1]): 1.22%
- GI50 (NCI/ADR-RES; Homo sapiens, NCI/ADR-RES, five dose): 1.67 µM
- CC50 (NCI/ADR-RES; Homo sapiens, NCI/ADR-RES, five dose, read-out: LC50 (the source's name)): 6 µM
- TGI (NCI/ADR-RES; NCI/ADR-RES, five dose): 3.17 µM
- Growth percent NCI/ADR-RES (NCI/ADR-RES; [1]): 23.00%
- GI50 (SK-OV-3; Homo sapiens, SK-OV-3, five dose): 1.68 µM
- CC50 (SK-OV-3; Homo sapiens, SK-OV-3, five dose, read-out: LC50 (the source's name)): 5.58 µM
- Growth percent SK-OV-3 (SK-OV-3; [1]): 70.10%
- TGI (SK-OV-3; SK-OV-3, five dose): 3.06 µM
- TGI (786-0; 786-0, five dose): 3.45 µM
- GI50 (786-0; Homo sapiens, 786-0, five dose): 1.84 µM
- CC50 (786-0; Homo sapiens, 786-0, five dose, read-out: LC50 (the source's name)): 6.46 µM
- Growth percent 786-0 (786-0; [2]): 43.11%
- TGI (A498; A498, five dose): 9.44 µM
- GI50 (A498; Homo sapiens, A498, five dose): 2.7 µM
- CC50 (A498; Homo sapiens, A498, five dose, read-out: LC50 (the source's name)): 3.52 µM
- Growth percent A498 (A498; [2]): 43.17%
- GI50 (RXF 393; Homo sapiens, RXF 393, five dose): 1.6 µM
- CC50 (RXF 393; Homo sapiens, RXF 393, five dose, read-out: LC50 (the source's name)): 7.29 µM
- TGI (RXF 393; RXF 393, five dose): 3.41 µM
- Growth percent RXF 393 (RXF 393; [2]): −15.29%
- GI50 (SN12C; Homo sapiens, SN12C, five dose): 1.59 µM
- CC50 (SN12C; Homo sapiens, SN12C, five dose, read-out: LC50 (the source's name)): 6.12 µM
- Growth percent SN12C (SN12C; [2]): 48.67%
- TGI (SN12C; SN12C, five dose): 3.12 µM
- Growth percent TK-10 (TK-10): −89.05%
- GI50 (UO-31; Homo sapiens, UO-31, five dose): 1.19 µM
- CC50 (UO-31; Homo sapiens, UO-31, five dose, read-out: LC50 (the source's name)): 5.22 µM
- Growth percent UO-31 (UO-31; [2]): 21.83%
- TGI (UO-31; UO-31, five dose): 2.50 µM
- GI50 (PC-3; Homo sapiens, PC-3, five dose): 1.47 µM
- CC50 (PC-3; Homo sapiens, PC-3, five dose, read-out: LC50 (the source's name)): 5.74 µM
- TGI (PC-3; PC-3, five dose): 2.90 µM
- Growth percent PC-3 (PC-3; [3]): 33.32%
- TGI (DU-145; DU-145, five dose): 3.34 µM
- GI50 (DU-145; Homo sapiens, DU-145, five dose): 1.87 µM
- CC50 (DU-145; Homo sapiens, DU-145, five dose, read-out: LC50 (the source's name)): 5.99 µM
- Growth percent DU-145 (DU-145; [3]): −80.85%
- Growth percent MCF7 (Table 2: MCF) (MCF7; [4]): −85.41%
- GI50 (MCF7; Homo sapiens, MCF7, five dose): 1.23 µM
- CC50 (MCF7; Homo sapiens, MCF7, five dose, read-out: LC50 (the source's name)): 5.71 µM
- TGI (MCF7; MCF7, five dose): 2.66 µM
- Growth percent MDA-MB-231/ATCC (MDA-MB-231/ATCC; [4]): −37.28%
- GI50 (MDA-MB-231/ATCC; Homo sapiens, MDA-MB-231/ATCC, five dose): 1.2 µM
- CC50 (MDA-MB-231/ATCC; Homo sapiens, MDA-MB-231/ATCC, five dose, read-out: LC50 (the source's name)): 5.28 µM
- TGI (MDA-MB-231/ATCC; MDA-MB-231/ATCC, five dose): 2.51 µM
- TGI (BT-549; BT-549, five dose): 2.27 µM
- Growth percent BT-549 (BT-549; [4]): 91.29%
- GI50 (BT-549; Homo sapiens, BT-549, five dose): 8.91 µM
- CC50 (BT-549; Homo sapiens, BT-549, five dose, read-out: LC50 (the source's name)): 5.33 µM
- Growth percent T-47D (T-47D): 26.06%
- GI50 (MDA-MB-486; 60 cell, MDA-MB-486, five dose): 1.47 µM
- CC50 (MDA-MB-486; 60 cell, MDA-MB-486, five dose, read-out: LC50 (the source's name)): 7.34 µM
- Growth percent MDA-MB-486 (MDA-MB-486; [4]): 12.81%
- TGI (MDA-MB-486; MDA-MB-486, five dose): 3.28 µM
- GI50 (60 cancer cell lines; 60 cell, mean over panel, five dose): 1.66 µM
- CC50 (60 cancer cell lines; 60 cell, mean over panel, five dose, read-out: LC50, Mean): 6.92 µM
- Growth percent, Delta (60 cancer cell lines; delta over the cell panel, 10^−5 molar, 48 hours, SRB): 85.53%
- TGI, Mean (60 cancer cell lines; mean over panel, five dose): 3.39 µM
- Growth percent, Mean (60 cancer cell lines; mean over the cell panel, 10^−5 molar, 48 hours, SRB): −11.06%
- Growth percent, Range (60 cancer cell lines; range over the cell panel, 10^−5 molar, 48 hours, SRB): 187.88%
